Experimental data published in ChEMBL document CHEMBL1201862, “PubChem BioAssay data set” (2004).
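Method: 48-hour compound exposure of cells in 96-well plates, five concentrations, linear interpolation of endpoints. At the GI50, growth is halved.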 Calls of active or inactive are those of the source. Rule as the data show it: active = GI50 up to about 1.1 µM and inactive = higher. Residues, ends and D or L forms follow the SMILES beside them. *: point of attachment. Boc = CC(C)(C)OC(=O)*; OBn = c1ccc(CO*)cc1; Bn = c1ccc(C*)cc1

Tests used:
Experiment in all cases: NCI anticancer screen, dose series, 48 h
[1] = system: EKVX
[2] = system: SR
[3] = system: HOP-62
[4] = system: SF-268
[5] = system: KM12
[6] = system: U-251
[7] = system: NCI-H23
[8] = system: RXF 393
[9] = system: SK-MEL-28
[10] = system: MDA-MB-231
[11] = system: OVCAR-4
[12] = system: NCI-H522
[13] = system: SNB-75
[14] = system: UACC-62
[15] = system: OVCAR-5
[16] = system: M14
[17] = system: K562
[18] = system: CCRF-CEM
[19] = system: UO-31
[20] = system: A498

| Structure (SMILES) | GI50 [1] | GI50 [2] | GI50 [3] | GI50 [4] | GI50 [5] | GI50 [6] | GI50 [7] | GI50 [8] | GI50 [9] | GI50 [10] | GI50 [11] | GI50 [12] | GI50 [13] | GI50 [14] | GI50 [15] | GI50 [16] | GI50 [17] | GI50 [18] | GI50 [19] | GI50 [20] |
| --- | --- | --- | --- | --- | --- | --- | --- | --- | --- | --- | --- | --- | --- | --- | --- | --- | --- | --- | --- | --- |
| Cc1nn(C(=O)c2ccccc2O)c2c1C(c1ccccc1)SC(=N)N2 (stereo not drawn) | > 10 µM (inactive) | 2.42 µM (inactive) | 2.64 µM (inactive) | 3.27 µM (inactive) | 3.53 µM (inactive) | 2.11 µM (inactive) | 0.836 µM (active) | > 10 µM (inactive) | > 10 µM (inactive) | 0.811 µM (active) | 1.49 µM (inactive) | 3.19 µM (inactive) | 0.311 µM (active) | 0.44 µM (active) | 6.08 µM (inactive) | 1.69 µM (inactive) | 0.413 µM (active) | 2.36 µM (inactive) | – | – |
| O=C(O)CCCNc1ncc2c(n1)-c1ccccc1OC2 | > 100 µM (inactive) | > 100 µM (inactive) | > 100 µM (inactive) | > 100 µM (inactive) | > 100 µM (inactive) | > 100 µM (inactive) | 77.4 µM (inactive) | > 100 µM (inactive) | > 100 µM (inactive) | > 100 µM (inactive) | > 100 µM (inactive) | > 100 µM (inactive) | 33.8 µM (inactive) | > 100 µM (inactive) | > 100 µM (inactive) | > 100 µM (inactive) | > 100 µM (inactive) | > 100 µM (inactive) | 68.2 µM (inactive) | – |
| CC(C)CCCC(C)[C@H]1CC[C@H]2NCCCC[C@]12C (stereo partly drawn) | 2.28 µM (inactive) | 2.07 µM (inactive) | 9.08 µM (inactive) | 13.1 µM (inactive) | 2.68 µM (inactive) | 2.4 µM (inactive) | 8.69 µM (inactive) | 2.14 µM (inactive) | 2.37 µM (inactive) | 2.92 µM (inactive) | 6.58 µM (inactive) | – | 6.03 µM (inactive) | 2.01 µM (inactive) | 2.53 µM (inactive) | 2.1 µM (inactive) | 2.01 µM (inactive) | 1.37 µM (inactive) | 7.36 µM (inactive) | 9.84 µM (inactive) |
| CCOc1cc(/C=N/c2ccc(Oc3ccc(Cl)cc3)c(Cl)c2)ccc1O | 18.5 µM (inactive) | 33.2 µM (inactive) | 23.1 µM (inactive) | 15.7 µM (inactive) | 18.2 µM (inactive) | 21.7 µM (inactive) | 22.7 µM (inactive) | – | 25.2 µM (inactive) | 19.6 µM (inactive) | 34 µM (inactive) | 13.7 µM (inactive) | 17.8 µM (inactive) | 27.7 µM (inactive) | 28.1 µM (inactive) | 29.8 µM (inactive) | – | 16.1 µM (inactive) | 11.8 µM (inactive) | 12.4 µM (inactive) |
| COc1cc(/C=C2\N=C(C)N(n3c(-c4ccccc4)nc4ccccc4c3=O)C2=O)cc(OC)c1OC | > 100 µM (inactive) | > 100 µM (inactive) | > 100 µM (inactive) | > 100 µM (inactive) | > 100 µM (inactive) | – | 94.6 µM (inactive) | – | > 100 µM (inactive) | > 100 µM (inactive) | – | 46.3 µM (inactive) | > 100 µM (inactive) | > 100 µM (inactive) | – | > 100 µM (inactive) | > 100 µM (inactive) | > 100 µM (inactive) | > 100 µM (inactive) | > 100 µM (inactive) |
| CC(C)CC(NC(=O)C(Cc1ccccc1)NC(=O)C(COCc1ccccc1)NC(=O)OC(C)(C)C)C(=O)OCc1ccccc1 (stereo not drawn) (Boc-Ser(Bn)-Phe-Leu-OBn; configuration not given here) | 24.8 µM (inactive) | 20.2 µM (inactive) | 49.4 µM (inactive) | 21.7 µM (inactive) | – | 22.3 µM (inactive) | 18.5 µM (inactive) | – | 19.5 µM (inactive) | 27.1 µM (inactive) | 42.7 µM (inactive) | 13.8 µM (inactive) | 22.1 µM (inactive) | 17.5 µM (inactive) | 39.4 µM (inactive) | 37.1 µM (inactive) | 9.57 µM (inactive) | 26.2 µM (inactive) | 39.5 µM (inactive) | 95.9 µM (inactive) |
| O=c1oc2c(Cl)cc(Cl)cc2cc1C1=CSC2=NCCN12 | 41.9 µM (inactive) | 40.6 µM (inactive) | 38.8 µM (inactive) | – | 57.8 µM (inactive) | 44.7 µM (inactive) | 46 µM (inactive) | 34.2 µM (inactive) | 47.1 µM (inactive) | 28.9 µM (inactive) | 39.7 µM (inactive) | – | 65.8 µM (inactive) | 51.9 µM (inactive) | > 100 µM (inactive) | 55.2 µM (inactive) | 34.4 µM (inactive) | 31.3 µM (inactive) | 29.3 µM (inactive) | – |
| Cc1cc(=O)oc2c(CNC(CO)C(=O)O)c(O)ccc12 (stereo not drawn) | > 100 µM (inactive) | 94.2 µM (inactive) | > 100 µM (inactive) | > 100 µM (inactive) | > 100 µM (inactive) | > 100 µM (inactive) | > 100 µM (inactive) | > 100 µM (inactive) | > 100 µM (inactive) | > 100 µM (inactive) | > 100 µM (inactive) | > 100 µM (inactive) | > 100 µM (inactive) | > 100 µM (inactive) | > 100 µM (inactive) | > 100 µM (inactive) | > 100 µM (inactive) | > 100 µM (inactive) | 73.1 µM (inactive) | – |
| CCC(C=O)P1(=O)OC(C)(C)CN1C(C)(C)C (stereo not drawn) | 91.4 µM (inactive) | > 100 µM (inactive) | 62.5 µM (inactive) | 88.3 µM (inactive) | 24.4 µM (inactive) | > 100 µM (inactive) | > 100 µM (inactive) | – | – | > 100 µM (inactive) | > 100 µM (inactive) | – | – | > 100 µM (inactive) | > 100 µM (inactive) | > 100 µM (inactive) | 77.8 µM (inactive) | – | > 100 µM (inactive) | 81.8 µM (inactive) |
| Cc1c(C#N)c2nnn(-c3ccccc3)c(=O)n2c1-c1ccccc1 | 2.61 µM (inactive) | 0.863 µM (active) | 4.48 µM (inactive) | 7.85 µM (inactive) | 0.839 µM (active) | – | 5.43 µM (inactive) | 2.48 µM (inactive) | – | 12.3 µM (inactive) | > 41.5 µM (inactive) | – | 2.95 µM (inactive) | 4.79 µM (inactive) | 1.89 µM (inactive) | 0.959 µM (active) | 0.236 µM (active) | 2.24 µM (inactive) | 5.75 µM (inactive) | 2.1 µM (inactive) |
| O=c1oc2ccccc2c(O)c1C(C/C(CCN1CCCC1)=N/O)c1ccccc1 (stereo not drawn) | > 100 µM (inactive) | > 100 µM (inactive) | > 100 µM (inactive) | > 100 µM (inactive) | > 100 µM (inactive) | > 100 µM (inactive) | > 100 µM (inactive) | – | > 100 µM (inactive) | > 100 µM (inactive) | > 100 µM (inactive) | > 100 µM (inactive) | > 91.2 µM (inactive) | > 100 µM (inactive) | > 100 µM (inactive) | > 100 µM (inactive) | > 31.6 µM (inactive) | – | > 100 µM (inactive) | > 100 µM (inactive) |
| c1ccc(C2OCC(OC3CCCCO3)CO2)cc1 (stereo not drawn) | > 100 µM (inactive) | > 100 µM (inactive) | > 100 µM (inactive) | > 100 µM (inactive) | – | > 100 µM (inactive) | > 100 µM (inactive) | – | > 100 µM (inactive) | > 100 µM (inactive) | > 100 µM (inactive) | > 100 µM (inactive) | – | > 100 µM (inactive) | > 100 µM (inactive) | > 100 µM (inactive) | > 100 µM (inactive) | > 10 µM (inactive) | 75.5 µM (inactive) | > 100 µM (inactive) |
| Oc1cccc(/C=N/N=c2/[nH][nH]/c(=N/N=C/c3cccc(O)c3)c3ccccc23)c1 | 18.3 µM (inactive) | 2.55 µM (inactive) | 12.5 µM (inactive) | 26.6 µM (inactive) | 25.2 µM (inactive) | 13.3 µM (inactive) | 16.2 µM (inactive) | 49.2 µM (inactive) | 21.8 µM (inactive) | 7.89 µM (inactive) | 17.4 µM (inactive) | 17.3 µM (inactive) | 12.9 µM (inactive) | 13.5 µM (inactive) | 40.1 µM (inactive) | 21.7 µM (inactive) | 18.3 µM (inactive) | 3.83 µM (inactive) | 15 µM (inactive) | – |
| COc1cc(-c2c3c(cc4c2OCO4)[C@@H](Nc2ccc4c(c2)Cc2cc(N[C@@H]5c6cc7c(cc6C(c6cc(OC)c(O)c(OC)c6)[C@H]6C(=O)OC[C@H]56)OCO7)ccc2-4)[C@H]2COC(=O)[C@@H]2C3)cc(OC)c1O (stereo partly drawn) | 74.6 µM (inactive) | 11.6 µM (inactive) | 18.5 µM (inactive) | 51.2 µM (inactive) | 26.5 µM (inactive) | 26.7 µM (inactive) | 76.4 µM (inactive) | – | 15.5 µM (inactive) | 21 µM (inactive) | – | – | > 100 µM (inactive) | – | 27.8 µM (inactive) | 21.9 µM (inactive) | – | > 100 µM (inactive) | 21.9 µM (inactive) | 44.3 µM (inactive) |
| Cc1csc2n(C)c(=O)c3ccccc3[n+]12 | > 100 µM (inactive) | > 100 µM (inactive) | > 100 µM (inactive) | > 100 µM (inactive) | > 100 µM (inactive) | > 100 µM (inactive) | > 100 µM (inactive) | > 100 µM (inactive) | > 100 µM (inactive) | > 100 µM (inactive) | > 100 µM (inactive) | > 100 µM (inactive) | – | > 100 µM (inactive) | > 100 µM (inactive) | > 100 µM (inactive) | > 100 µM (inactive) | > 100 µM (inactive) | > 100 µM (inactive) | – |
